Data reported in patent US20260209297A1, “ANTIMICROBIAL PEPTIDES AND MODIFICATIONS THEREOF” (priority 2022, published 2026).
Values after ≈ are worked out from the molar mass of the structure shown. Positions of bridges follow the written chain, without caps; N, C: chain ends. Non-standard residues stand in square brackets, D forms with d. Residues, ends and D or L forms follow the SMILES beside them. No end group written: not given here. Dab = NCC[C@H](N)C(=O)O

Experiments:
Alternaria alternata = assay: 96-well plate MIC assay with resazurin viability; format: cell-based; settings: Table 19; unit not given (peptide concentrations in μM)
B. cinerea [1] = assay: Semi-in planta gray mold assay on detached Nicotiana benthamiana leaves (drop inoculation); format: in vivo, Botrytis cinerea; settings: for reducing gray mold disease symptoms (lesion sizes): detached N. benthamiana leaves, 1.5 μM, 3 μM and 6 μM, 48 h
[2] = tested on: Colletotrichum gloeosporioides; assay: 96-well plate MIC assay with resazurin viability; format: cell-based; settings: Table 19; unit not given (peptide concentrations in μM)
Cercospora sojina = assay: 96-well plate MIC assay with resazurin viability; format: cell-based; settings: Table 19; unit not given (peptide concentrations in μM)
Botrytis cinerea T-4 = settings: Table 18
Botrytis cinerea T4 = format: cell-based
[3] = tested on: Fusarium graminearum PH-1; format: cell-based; settings: for F. graminearum PH-1 MIC Day 1: Fusarium graminearum PH-1, 96-well, resazurin viability
P. capsici = assay: MIC antifungal assay in SFM culture media; format: cell-based; settings: in vitro, low cationic conditions
F. oxysporum = assay: MIC antifungal assay in SFM culture media; format: cell-based; settings: in vitro, low cationic conditions
B. cinerea [4] = assay: MIC antifungal assay in SFM culture media (with or without added salts); format: cell-based, Botrytis cinerea; settings: for antifungal activity relative to the wild-type GMA4C_AC control, B. cinerea: in vitro, low cationic conditions
F. graminearum = format: cell-based, Fusarium graminearum; settings: in vitro, low cationic conditions

| Compound | MIC Alternaria alternata (Alternaria alternata) | MIC Colletotrichum gloeosporioides [2] | MIC Cercospora sojina (Cercospora sojina) | MIC (μM) SFM (Botrytis cinerea T-4) | MIC (μM) (SFM + 2 mM CaCl2) (Botrytis cinerea T-4) | MIC (μM) (SFM + 100 mM NaCl) (Botrytis cinerea T-4) | MIC (μM) (SFM + 100 mM KCl) (Botrytis cinerea T-4) | other results |
| --- | --- | --- | --- | --- | --- | --- | --- | --- |
| CC[C@H](C)[C@@H]1NC(=O)[C@H](CCCNC(=N)N)NC(=O)[C@H]([C@@H](C)O)NC(=O)[C@H](Cc2ccccc2)NC(=O)[C@H](Cc2c[nH]c3ccccc23)NC(=O)[C@H](Cc2ccccc2)NC(=O)[C@H](CCCNC(=N)N)NC(=O)[C@H](CCCNC(=N)N)NC(=O)[C@H](CC(C)C)NC(=O)[C@H](Cc2ccccc2)NC(=O)CNC(=O)[C@H](CCCCN)NC(=O)[C@@H](NC(=O)[C@H](CCCNC(=N)N)NC(=O)CNC(=O)CN)CSSC[C@@H](C(N)=O)NC1=O [GMA4C_V9] (H-GGRCKGFLRRFWFTRIC-NH2; disulfide 4-17; N-terminus assumed) | >12 | >12 | 6 | 3 µM (≈ 6.3 µg/mL) | 12 µM | 3 µM |  | reducing gray mold disease symptoms (lesion sizes) (B. cinerea [1]): effective |
| PD81.1.1: SEQ ID NO: 534 with N-terminal alanine; Pinus sylvestris wild-type defensin, expressed in Pichia pastoris (RMCKTPSGKFKGYCVSSTNCKNVCRTEGFPTGSCDFHVASRKCYCYKPC; N-terminal alanine added; listed as Pinus sylvestris) |  |  |  |  |  |  |  | MIC against B. cinerea (Botrytis cinerea T4): 1 µM; F. graminearum PH-1 MIC Day 1 [3]: 1.5 µM |
| N=C(N)NCCC[C@H](NC(=O)CNC(=O)[C@@H](N)Cc1ccccc1)C(=O)N[C@@H](CS)C(=O)N[C@@H](CCCNC(=N)N)C(=O)NCC(=O)N[C@@H](Cc1ccccc1)C(=O)N[C@@H](CCCNC(=N)N)C(=O)N[C@@H](CCCNC(=N)N)C(=O)N[C@@H](CCCNC(=N)N)C(=O)N[C@@H](CS)C(=O)N[C@@H](Cc1ccccc1)C(=O)N[C@@H](CS)C(=O)N[C@@H](Cc1c[nH]c2ccccc12)C(=O)N[C@@H](CCCNC(=N)N)C(=O)N[C@@H](Cc1c[nH]c2ccccc12)C(=O)N[C@@H](CS)C(N)=O [GMA4C_V4A] (H-FGRCRGFRRRCFCWRWC-NH2; N-terminus assumed) |  |  |  |  |  |  |  | antifungal activity relative to the wild-type GMA4C_AC control, P. capsici (P. capsici): equivalent; antifungal activity relative to the wild-type GMA4C_AC control, F. oxysporum (F. oxysporum): equivalent; fungal growth inhibition at 6 μM (B. cinerea [4]; B. cinerea, in presence of 2 mM CaCl2, 6 μM): inhibit fungal growth; potency of activity relative to GMA4C_AC (B. cinerea [4]; B. cinerea, in presence of 100 mM NaCl or 100 mM KCl): 2 fold; antifungal activity relative to the wild-type GMA4C_AC control, B. cinerea (B. cinerea [4]): equivalent; antifungal activity relative to the wild-type GMA4C_AC control, F. graminearum (F. graminearum): equivalent |
| C[C@H](NC(=O)CN)C(=O)N[C@@H](CS)C(=O)N[C@@H](Cc1c[nH]cn1)C(=O)N[C@@H](CCCNC(=N)N)C(=O)N[C@@H](CCC(N)=O)C(=O)NCC(=O)N[C@@H](Cc1ccccc1)C(=O)NCC(=O)N[C@@H](Cc1ccccc1)C(=O)N[C@@H](C)C(=O)N[C@@H](CS)C(=O)N[C@@H](Cc1ccccc1)C(=O)N[C@@H](CS)C(=O)N[C@@H](Cc1ccc(O)cc1)C(=O)N[C@@H](CCCCN)C(=O)N[C@@H](CCCCN)C(=O)N[C@@H](CS)C(N)=O [GMA5CA_WT, reference compound] (H-GACHRQGFGFACFCYKKC-NH2; N-terminus assumed) | 6 | >12 | 12 |  |  |  |  |  |
| C[C@H](NC(=O)CN)C(=O)N[C@H]1CSSC[C@@H](C(N)=O)NC(=O)[C@H](CCCCN)NC(=O)[C@H](CCCCN)NC(=O)[C@H](Cc2ccc(O)cc2)NC(=O)[C@H](Cc2c[nH]c3ccccc23)NC(=O)[C@H](Cc2ccccc2)NC(=O)[C@H](Cc2c[nH]c3ccccc23)NC(=O)[C@H](C)NC(=O)[C@H](Cc2ccccc2)NC(=O)CNC(=O)[C@H](Cc2ccccc2)NC(=O)CNC(=O)[C@H](CCC(N)=O)NC(=O)[C@H](CCCNC(=N)N)NC(=O)[C@H](Cc2c[nH]cn2)NC1=O [GMA5CA_V3] (H-GACHRQGFGFAWFWYKKC-NH2; disulfide 3-18; N-terminus assumed) | 3 | >12 | 6 | 3 µM (≈ 6.57 µg/mL) | >12 µM | >12 µM | >12 µM |  |
| C[C@H](NC(=O)CN)C(=O)N[C@H]1CSSC[C@@H](C(N)=O)NC(=O)[C@H](CCCCN)NC(=O)[C@H](CCCCN)NC(=O)[C@H](Cc2ccc(O)cc2)NC(=O)[C@H](Cc2ccccc2)NC(=O)[C@H](Cc2ccccc2)NC(=O)[C@H](Cc2ccccc2)NC(=O)[C@H](C)NC(=O)[C@H](Cc2ccccc2)NC(=O)CNC(=O)[C@H](Cc2ccccc2)NC(=O)CNC(=O)[C@H](CCC(N)=O)NC(=O)[C@H](CCCNC(=N)N)NC(=O)[C@H](Cc2c[nH]cn2)NC1=O [GMA5CA_V4] (H-GACHRQGFGFAFFFYKKC-NH2; disulfide 3-18; N-terminus assumed) | 3 | >12 | 6 | 3 µM (≈ 6.33 µg/mL) | >12 µM | >12 µM | >12 µM |  |
| GRCRGFRRRCFCTTHC-NH2 (cysteine pairing not given here) [GMA4AC_WT, reference compound] | >12 | >12 | >12 |  |  |  |  |  |
| CC[C@H](C)[C@@H]1NC(=O)[C@H](CCCNC(=N)N)NC(=O)[C@H]([C@@H](C)O)NC(=O)[C@H](Cc2c[nH]c3ccccc23)NC(=O)[C@H](Cc2ccc(O)cc2)NC(=O)[C@H](Cc2c[nH]c3ccccc23)NC(=O)[C@H](CCCNC(=N)N)NC(=O)[C@H](CCCNC(=N)N)NC(=O)[C@H](CCCNC(=N)N)NC(=O)[C@H](Cc2ccccc2)NC(=O)CNC(=O)[C@H](CCCCN)NC(=O)[C@@H](NC(=O)[C@H](CCCNC(=N)N)NC(=O)CNC(=O)CN)CSSC[C@@H](C(N)=O)NC1=O [GMA4C_V10] (H-GGRCKGFRRRWYWTRIC-NH2; disulfide 4-17; N-terminus assumed) | >12 | >12 | 6 | 3 µM (≈ 6.6 µg/mL) | 3 µM | 3 µM | 3 to 6 µM | reducing gray mold disease symptoms (lesion sizes) (B. cinerea [1]): effective; reducing the symptoms of gray mold, comparison (B. cinerea [1]; low concentrations of 1.5 μM and 3 μM, compared with GMA4C_V9): more effective |
| NCC[C@H](NC(=O)CNC(=O)[C@@H](N)Cc1ccccc1)C(=O)N[C@@H](CS)C(=O)N[C@@H](CCN)C(=O)NCC(=O)N[C@@H](Cc1ccccc1)C(=O)N[C@@H](CCN)C(=O)N[C@@H](CCN)C(=O)N[C@@H](CCN)C(=O)N[C@@H](CS)C(=O)N[C@@H](Cc1ccccc1)C(=O)N[C@@H](CS)C(=O)N[C@@H](Cc1c[nH]c2ccccc12)C(=O)N[C@@H](CCN)C(=O)N[C@@H](Cc1c[nH]c2ccccc12)C(=O)N[C@@H](CS)C(N)=O [GMA4C_V5A, FG(Dab)C(Dab)GF(Dab)(Dab)(Dab)CFCW(Dab)WC-NH2] (H-FG[Dab]C[Dab]GF[Dab][Dab][Dab]CFCW[Dab]WC-NH2; N-terminus assumed) |  |  |  |  |  |  |  | antifungal activity relative to the wild-type GMA4C_AC control, P. capsici (P. capsici): equivalent; antifungal activity relative to the wild-type GMA4C_AC control, F. oxysporum (F. oxysporum): equivalent; antifungal activity relative to the wild-type GMA4C_AC control, B. cinerea (B. cinerea [4]): equivalent; antifungal activity relative to the wild-type GMA4C_AC control, F. graminearum (F. graminearum): equivalent |
| C[C@@H]1[C@H](O)[C@@H](C)/C=C/C=C/C=C/C=C/C=C/C=C/C=C/[C@H](O[C@@H]2O[C@H](C)[C@@H](O)[C@H](N)[C@@H]2O)C[C@@H]2O[C@](O)(C[C@@H](O)C[C@@H](O)[C@H](O)CC[C@@H](O)C[C@@H](O)CC(=O)O[C@H]1C)C[C@H](O)[C@H]2C(=O)O [Amphotericin-B, reference compound] |  |  |  |  |  |  |  | MIC against B. cinerea (Botrytis cinerea T4): 3 µM (≈ 2.77 µg/mL); MIC against F. graminearum ([3]; F. graminearum PH-1, Example 7): 6 µM (≈ 5.54 µg/mL); F. graminearum PH-1 MIC Day 1 [3]: 6 µM |
